Measurements published in US20250353873A1, “COMPOUNDS AND METHODS FOR MODULATING APOE EXPRESSION” (Ionis Pharmaceuticals, Inc., priority 2024, published 2025).
Strand notation (5' to 3'): a small letter for the sugar, then the base; units joined by * are phosphorothioate-linked, units joined directly phosphodiester-linked; [ ] holds rarer units or linkages, { } end groups; capitals alone tell only the bases. [ms] = mesyl phosphoramidate linkage; k = constrained ethyl (cEt); [5mC] = 5-methylcytosine; d = 2'-deoxy (DNA)

How the values were obtained:
human APOE RNA [1] = experiment: Dose-dependent inhibition of human APOE RNA in HepG2 cells, electroporation, 50,000 cells per well, RT-PCR normalized to GAPDH (Example 4, Tables 8-10); type: cell-based; settings: HepG2, electroporation, 24-hour treatment
Outline: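 HepG2 cells, 50,000 per well, electroporated with modified oligonucleotide at various concentrations. APOE RNA quantified by RT-PCR with human primer probe set RTS3073, normalized to GAPDH. Values are percent APOE RNA relative to untreated control cells.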

human APOE RNA [2] = experiment: Duration of action study in APOE C57BL/6NTac-Apoeem7250 knock-in mice (Example 16); type: in vivo; settings: 300 μg ICV
Experimental: Modified oligonucleotides described above were tested in the APOE C57BL/6NTac-Apoeem7250 knock-in mouse model described above.
APOE C57BL/6NTac-Apoeem7250 knock-in mice were divided into groups of 2-4 mice each. Each mouse received a single intracerebroventricular (ICV) bolus of 300 μg of modified oligonucleotide. A group of 2-4 mice received a single ICV bolus with PBS as a negative control.
Mice were sacrificed at various timepoints as indicated in the table below and RNA was extracted from cortical brain tissue and spinal cord for quantitative real-time RT-PCR analysis of RNA expression of APOE using primer probe set RTS3073 (described herein above). APOE RNA levels were normalized to mouse Ppia. Mouse Ppia was amplified using primer probe set m_cyclo24 (described herein above). Results are presented as percent human APOE RNA relative to the amount of human APOE RNA in PBS treated animals, (% control). Each experiment is identified in separate tables below.

human APOE RNA [3] = experiment: Activity in APOE C57BL/6NTac-Apoeem7250 knock-in mice, single ICV bolus, 4 weeks (Example 10); type: in vivo; settings: single ICV bolus 300 μg, 4 weeks post treatment, normalized to mouse Ppia
Outline: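 Knock-in mice (2–4 per group) received one 300 μg ICV bolus of oligonucleotide or PBS. After four weeks, human APOE RNA in cortex and spinal cord measured by RT-qPCR (primer probe set RTS3073), normalized to mouse Ppia, expressed as % of PBS controls.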

human APOE RNA [4] = experiment: Activity in APOE C57BL/6NTac-Apoeem7250 knock-in mice, single ICV bolus, 8 weeks (Example 11); type: in vivo; settings: single ICV bolus 300 μg, 8 weeks post treatment, normalized to mouse Ppia
Outline: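 Human APOE knock-in C57BL/6NTac mice given one ICV bolus of 300 μg oligonucleotide; PBS-dosed group as control. At 8 weeks, cortex and spinal cord RNA measured by qRT-PCR (human probe RTS3073), normalized to mouse Ppia, expressed as % of PBS control.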

Row | Substance | APOE RNA (% UTC) (human APOE RNA [1]; 5 nM) | APOE RNA (% UTC) (human APOE RNA [1]; 13 nM) | APOE RNA (% UTC) (human APOE RNA [1]; 33 nM) | APOE RNA (% UTC) (human APOE RNA [1]; 82 nM) | APOE RNA (% UTC) (human APOE RNA [1]; 205 nM) | APOE RNA (% UTC) (human APOE RNA [1]; 512 nM) | APOE RNA (% UTC) (human APOE RNA [1]; 1,280 nM) | APOE RNA (% UTC) (human APOE RNA [1]; 3,200 nM) | APOE RNA (% UTC) (human APOE RNA [1]; 8,000 nM) | APOE RNA (% UTC) (human APOE RNA [1]; 20,000 nM) | IC50 (human APOE RNA [1]) [nM] | APOE RNA (% control) Cortex (human APOE RNA [2]; 112 days post-dose) [% control] | APOE RNA (% control) Cortex (human APOE RNA [2]; 140 days post-dose) [% control] | APOE RNA (% control) Spinal Cord (human APOE RNA [2]; 112 days post-dose) [% control] | APOE RNA (% control) Spinal Cord (human APOE RNA [2]; 140 days post-dose) [% control] | APOE RNA (% control) Cortex (human APOE RNA [3]) [% control] | APOE RNA (% control) Spinal Cord (human APOE RNA [3]) [% control] | APOE RNA (% control) Cortex (human APOE RNA [4]; cortex) [% control] | APOE RNA (% control) Spinal Cord (human APOE RNA [4]; spinal cord) [% control]
1 | 1746810 (k[5mC]*dT[ms]kT*dG[ms]dG[ms]kT*dG[ms]dA[ms]dA[ms]dT*d[5mC]*dT*dT*dT*dA[ms]dT*dT[ms]kA*kA*kA; antisense) [Compound 1746810] | 109 | 106 | 95 | 77 | 68 | 46 | 36 | 13 | 8 | 5 | 490 | 63 | 82 | 80 | 106 | 56 | 80 | – | –
2 | 1746811 (k[5mC]*dT[ms]dT[ms]kG*kG*dT[ms]dG[ms]dA[ms]dA[ms]dT*d[5mC]*dT*dT*dT*dA[ms]dT*dT[ms]kA*kA*kA; antisense) [Compound 1746811] | 99 | 86 | 83 | 95 | 70 | 54 | 47 | 23 | 12 | 5 | 740 | 71 | 89 | 95 | 103 | 61 | 62 | – | –
3 | 1747050 (k[5mC]*kT*kT*dG[ms]dG[ms]kT*dG[ms]dA[ms]dA[ms]dT*d[5mC]*dT*dT*dT*dA[ms]dT*kT*dA[ms]dA[ms]kA; antisense) [Compound 1747050] | 182 | 135 | 115 | 111 | 110 | 76 | 49 | 31 | 14 | 10 | 1540 | 63 | 74 | 93 | 86 | 29 | 45 | 36 | 23
4 | 1753989 (k[5mC]*dT[ms]kT*dG[ms]kG*dT*dG[ms]dA[ms]dA[ms]dT*d[5mC]*dT*dT*dT*dA[ms]kT*dT[ms]kA*dA[ms]kA; antisense) [Compound 1753989] | 113 | 108 | 102 | 79 | 94 | 76 | 49 | 33 | 25 | 16 | 1670 | 58 | 72 | 117 | 79 | 54 | 49 | – | –
